Tested on: Staphylococcus aureus methicillin-resistant wild type T67738
Assay: Susceptibility test, microtiter broth dilution (MIC), resistant S. aureus
Format: cell-based
Conditions: in culture
Experimental: The strains were streaked on blood agar plates (trypticase soy broth containing 5% sheep cells). A single colony was isolated and grown in Mueller-Hinton Broth (MHB) as recommended by the national Committee for Clinical Laboratory Standards for rapidly growing bacteria. Candida species and related yeasts were isolated in a similar manner on brain-heart infusion agar (BHI).
The antibiotic susceptibility profile of each strain was determined using standard microtiter dilution plates obtained from the Clinical Microbiology Laboratory at Ohio State University Hospitals. The Inocula were prepared by suspending a 4 hour log phase growth in MHB visually equal in turbidity of an 0.5 McFarland standard. Inocula were further diluted and added to microdilution trays to achieve a final density of approximately 1×10^5 CFU/ml. The trays were incubated for 16 to 20 hours at 35° C. The highest dilution at which wells remained clear was considered to be the minimum inhibitory concentration (MIC).
The MIC and minimum bacterial concentration (MBC) of the strains to the active agents were determined by two-fold dilutions in Mueller-Hinton broth. […]

With `OC(c1c2cccc(Cl)c2cc2c(Cl)cccc12)C1CCCCN1` (stereo not drawn) [WR 218394, α-(2-PIPERIDYL)-4,5-DICHLORO-9-ANTHRACENEMETHANOL] the “Effective Concentration S. Aureous (Resist).” value was 3.1 µg/mL.

— patent US20020169153A1, “Substituted aromatic compounds for treatment of antibiotic resistant infections” (priority 1998, published 2002)
